Assay results taken from patent publication US20090012766A1, “Event Sequencer” (NATIONAL INSTITUTE OF ADVANCED INDUSTRIAL SCIENCE AND …, priority 2004, published 2009).

Assays:
[1] = test system: cells resistant or sensitive to the anticancer agent; assay: Time-lapse profiles of cells exposed to an anticancer agent; type: cell-based; conditions: 1 μM, 5 μM, 10 μM and the like
Experimental: In this example, cisplatin was used as an exemplary anticancer agent and mixed into medium contacting cells. The concentration of the anticancer agent was selected as appropriate, such as 1 μM, 5 μM, 10 μM, and the like, to observe the reaction of the cells. Cisplatin was applied to cells resistant or sensitive to the anticancer agent. Time-lapse observation was conducted to produce profiles as in the above-described examples.

Human Mesenchymal Cell = assay: Cell adhesion profile, actin filaments and nuclear surface area with or without fibronectin (FIGS. 8-10); type: cell-based; conditions: presence of fibronectin
HEK293 cells = assay: Solid phase transfection with actin-like acting substances, gelatin as control (FIG. 1); type: cell-based, human
Experimental: (§1) The final concentration of DNA was adjusted to 1 μg/μL. An actin-like acting substance was stored as a stock having a concentration of 10 μg/μL, in ddH2O. All dilutions were made using PBS, ddH2O, or Dulbecco's MEM. A series of dilutions, for example, 0.2 μg/μL, 0.27 μg/μL, 0.4 μg/μL, 0.53 μg/μL, 0.6 μg/μL, 0.8 μg/μL, 1.0 μg/μL, 1.07 μg/μL, 1.33 μg/μL, and the like, were formulated.
In Example 2, the following 5 cells were used to confirm an effect: human mesenchymal stem cell (hMSCs, PT-2501, Cambrex BioScience Walkersville, Inc., MD); human embryonic renal cell (HEK293, RCB1637, RIKEN Cell Bank, JPN); NIH3T3-3 cell (RCB0150, RIKEN Cell Bank, JPN); HeLa cell (RCB0007, RIKEN Cell Bank, JPN); and HepG2(RCB1648, RIKEN Cell Bank, JPN). These cells were cultured in DMEM/10% IFS containing L-glutamine and penicillin/streptomycin.
(§2) Transfection reagents and DNA were mixed to form a DNA-transfection reagent complex. Formation of the complex requires a certain period of time. Therefore, the mixture was spotted onto a solid phase support (e.g., a poly-L-lysine slide) using an arrayer. In Example 2, as a solid phase support, an APS slide, a MAS slide, and an uncoated slide were used, as well as a poly-L-lysine slide. These slides are available from Matsunami Glass (Kishiwada, Japan), or the like.
Although the actin-like acting substance might be used during complex formation, it was also used immediately before spotting in the present Example.
300 μL of DNA concentrated buffer (EC buffer)+16 μL of an enhancer were mixed in an Eppendorf tube. The mixture was mixed with a Vortex, followed by incubation for 5 minutes. […]
Gene introduction was evaluated by detection using, for example, immunofluorescence, fluorescence microscope examination, laser scanning, radioactive labels, and sensitive films, or emulsion.
(§3) To quantify transfection efficiency, the present inventors use a DNA microarray scanner (GeneTAC UC4×4, Genomic Solutions Inc., MI). Total fluorescence intensity (arbitrary unit) was measured, and thereafter, fluorescence intensity per unit surface area was calculated.

Mesenchymal Stem Cells = assay: Solid phase transfection at varied fibronectin concentration on PLL, APS and uncoated slides (FIG. 7); type: cell-based, human
Experimental: as §1, §2
The growing cells were adjusted to a concentration of 10^7 cells/25 mL. The cells were plated on the slide in a 100×100×15 mm squared Petri dish or a 100 mm (radius)×15 mm circular dish. Transfection was conducted for about 40 hours. This period of time corresponded to about 2 cell cycles. The slide was treated for immunofluorescence.
as §3
In FIG. 7, slides coated with PLL (poly-L-lysine), APS and uncoated slides are shown.

Compound: N.N.[Cl][Pt][Cl] [cisplatin]
- time-lapse profiles [1]: varied depending on the difference in cisplatin concentration and resistance/sensitivity

Compound: fibronectin
- surface area of the nucleus (Human Mesenchymal Cell): significantly increased
- extension of adherent cells (Human Mesenchymal Cell; initial 3 hours of culture): full extension of cells
- transfection in the system using the actin-like acting substance (HEK293 cells): transfection took place to a significant level
- fibronectin concentration at which the effect was further increased (Mesenchymal Stem Cells; APS slides): > 1.07 µg/µL
- fibronectin concentration at which transfection efficiency reached a plateau (Mesenchymal Stem Cells; PLL coating and absence of coating): more than 0.53 μg/μL
- transfection efficiency as a function of fibronectin concentration (Mesenchymal Stem Cells; fibronectin 0 to 1.33 μg/μL, PLL, APS, uncoated slides): increased with an increase in fibronectin concentration

Compound: gelatin [reference compound]
- transfection in the system using the actin-like acting substance (HEK293 cells): transfection was not very successful

Compound: laminin
- transfection in the system using the actin-like acting substance (HEK293 cells): transfection took place to a significant level
